Experimental data as given in ChEMBL document CHEMBL5723582, “Data for DCP probe T-10430” (2024).

Assays:
Settings in all cases: Compound concentration 1.0 uM
[1] = biological target: Metabotropic glutamate receptor 8 (Homo sapiens) (UniProt O00222); test: RLU of GRM8 at 1.0 µM in the Aequorin PRESTO-Tango GPCRome screen
[2] = biological target: G-protein coupled receptor 151 (Homo sapiens) (UniProt Q8TDV0); test: RLU of GPR151 at 1.0 µM in the […] PRESTO-Tango GPCRome screen
[3] = biological target: Growth hormone secretagogue receptor type 1 (Homo sapiens) (UniProt Q92847); test: RLU of GHSR at 1.0 µM in the […] PRESTO-Tango GPCRome screen
[4] = biological target: G-protein coupled receptor 84 (Homo sapiens) (UniProt Q9NQS5); test: RLU of GPR84 at 1.0 µM in the […] PRESTO-Tango GPCRome screen
[5] = biological target: Proteinase-activated receptor 3 (Homo sapiens) (UniProt O00254); test: RLU of F2RL2 at 1.0 µM in the […] PRESTO-Tango GPCRome screen
[6] = biological target: Leukotriene B4 receptor 1 (Homo sapiens, UniProt Q15722); test: RLU of LTB4R at 1.0 µM in the […] PRESTO-Tango GPCRome screen
[7] = biological target: Somatostatin receptor type 4 (Homo sapiens) (UniProt P31391); test: RLU of SSTR4 at 1.0 µM in the […] PRESTO-Tango GPCRome screen
[8] = biological target: G-protein coupled receptor 87 (Homo sapiens) (UniProt Q9BY21); test: RLU of GPR87 at 1.0 µM in the […] PRESTO-Tango GPCRome screen
[9] = biological target: Probable G-protein coupled receptor 45 (Homo sapiens) (UniProt Q9Y5Y3); test: RLU of GPR45 at 1.0 µM in the […] PRESTO-Tango GPCRome screen
[10] = biological target: Lysophosphatidic acid receptor 2 (Homo sapiens) (UniProt Q9HBW0); test: RLU of LPAR2 at 1.0 µM in the […] PRESTO-Tango GPCRome screen
[11] = biological target: Alpha-2A adrenergic receptor (Homo sapiens) (UniProt P08913); test: RLU of ADRA2A at 1.0 µM in the […] PRESTO-Tango GPCRome screen
[12] = biological target: Relaxin receptor 2 (Homo sapiens) (UniProt Q8WXD0); test: RLU of RXFP2 at 1.0 µM in the […] PRESTO-Tango GPCRome screen
[13] = biological target: Probable G-protein coupled receptor 101 (Homo sapiens) (UniProt Q96P66); test: RLU of GPR101 at 1.0 µM in the […] PRESTO-Tango GPCRome screen
[14] = biological target: 5-hydroxytryptamine receptor 2C (Homo sapiens) (UniProt P28335); test: RLU of HTR2C at 1.0 µM in the […] PRESTO-Tango GPCRome screen
[15] = biological target: Alpha-2C adrenergic receptor (Homo sapiens) (UniProt P18825); test: RLU of ADRA2C at 1.0 µM in the […] PRESTO-Tango GPCRome screen
[16] = biological target: Probable G-protein coupled receptor 173 (Homo sapiens) (UniProt Q9NS66); test: RLU of GPR173 at 1.0 µM in the […] PRESTO-Tango GPCRome screen
Opsin-5 (Homo sapiens) = Opsin-5 (Homo sapiens) (UniProt Q6U736); test: RLU of OPN5 at 1.0 µM in the […] PRESTO-Tango GPCRome screen
[17] = biological target: Lysophosphatidic acid receptor 1 (Homo sapiens) (UniProt Q92633); test: RLU of LPAR1 at 1.0 µM in the […] PRESTO-Tango GPCRome screen
[18] = biological target: Probable G-protein coupled receptor 149 (Homo sapiens) (UniProt Q86SP6); test: RLU of GPR149 at 1.0 µM in the […] PRESTO-Tango GPCRome screen
[19] = biological target: P2Y purinoceptor 4 (Homo sapiens) (UniProt P51582); test: RLU of P2RY4 at 1.0 µM in the […] PRESTO-Tango GPCRome screen
[20] = biological target: Alpha-1A adrenergic receptor (Homo sapiens) (UniProt P35348); test: RLU of ADRA1A at 1.0 µM in the […] PRESTO-Tango GPCRome screen
[21] = biological target: Melanin-concentrating hormone receptor 2 (Homo sapiens) (UniProt Q969V1); test: RLU of MCHR2 at 1.0 µM in the […] PRESTO-Tango GPCRome screen
[22] = biological target: Muscarinic acetylcholine receptor M3 (Homo sapiens) (UniProt P20309); test: RLU of CHRM3 at 1.0 µM in the […] PRESTO-Tango GPCRome screen
[23] = biological target: Proteinase-activated receptor 1 (Homo sapiens) (UniProt P25116); test: RLU of F2R at 1.0 µM in the […] PRESTO-Tango GPCRome screen
[24] = biological target: Gastrin/cholecystokinin type B receptor (Homo sapiens) (UniProt P32239); test: RLU of CCKBR at 1.0 µM in the […] PRESTO-Tango GPCRome screen
[25] = biological target: Cysteinyl leukotriene receptor 2 (Homo sapiens) (UniProt Q9NS75); test: RLU of CYSLTR2 at 1.0 µM in the […] PRESTO-Tango GPCRome screen
[26] = biological target: Metabotropic glutamate receptor 4 (Homo sapiens) (UniProt Q14833); test: RLU of GRM4 at 1.0 µM in the Aequorin PRESTO-Tango GPCRome screen
[27] = biological target: D(4) dopamine receptor (Homo sapiens) (UniProt P21917); test: RLU of DRD4 at 1.0 µM in the […] PRESTO-Tango GPCRome screen
[28] = biological target: Histamine H4 receptor (Homo sapiens) (UniProt Q9H3N8); test: RLU of HRH4 at 1.0 µM in the Aequorin PRESTO-Tango GPCRome screen
[29] = biological target: G-prodeshotein coupled receptor 4 (Homo sapiens) (UniProt P46093); test: RLU of GPR4 at 1.0 µM in the […] PRESTO-Tango GPCRome screen
[30] = biological target: C5a anaphylatoxin chemotactic receptor 2 (Homo sapiens) (UniProt Q9P296); test: RLU of GPR77 at 1.0 µM in the […] PRESTO-Tango GPCRome screen
[31] = biological target: Trace amine-associated receptor 6 (Homo sapiens) (UniProt Q96RI8); test: RLU of TAAR6 at 1.0 µM in the […] PRESTO-Tango GPCRome screen
[32] = biological target: Probable G-protein coupled receptor 19 (Homo sapiens) (UniProt Q15760); test: RLU of GPR19 at 1.0 µM in the […] PRESTO-Tango GPCRome screen
[33] = biological target: Mas-related G-protein coupled receptor member X3 (Homo sapiens) (UniProt Q96LB0); test: RLU of MRGPRX3 at 1.0 µM in the […] PRESTO-Tango GPCRome screen
[34] = biological target: Histamine H1 receptor (Homo sapiens) (UniProt P35367); test: RLU of HRH1 at 1.0 µM in the Aequorin PRESTO-Tango GPCRome screen

Sequence of 5-hydroxytryptamine receptor 2C (Homo sapiens) (P28335 whole entry): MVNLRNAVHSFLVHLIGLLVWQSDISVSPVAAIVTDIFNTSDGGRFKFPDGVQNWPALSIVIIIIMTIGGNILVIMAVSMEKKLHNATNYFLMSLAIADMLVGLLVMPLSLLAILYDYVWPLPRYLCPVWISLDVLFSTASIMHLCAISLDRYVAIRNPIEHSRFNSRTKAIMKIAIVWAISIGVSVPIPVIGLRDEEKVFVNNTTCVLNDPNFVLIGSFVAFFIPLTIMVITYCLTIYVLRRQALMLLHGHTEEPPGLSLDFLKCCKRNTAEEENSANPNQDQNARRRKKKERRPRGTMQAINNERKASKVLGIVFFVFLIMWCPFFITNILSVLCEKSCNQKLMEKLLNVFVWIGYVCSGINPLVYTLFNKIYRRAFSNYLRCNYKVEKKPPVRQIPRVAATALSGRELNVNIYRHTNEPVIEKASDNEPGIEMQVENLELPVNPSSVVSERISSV
Sequence of Probable G-protein coupled receptor 45 (Homo sapiens) (Q9Y5Y3 whole entry): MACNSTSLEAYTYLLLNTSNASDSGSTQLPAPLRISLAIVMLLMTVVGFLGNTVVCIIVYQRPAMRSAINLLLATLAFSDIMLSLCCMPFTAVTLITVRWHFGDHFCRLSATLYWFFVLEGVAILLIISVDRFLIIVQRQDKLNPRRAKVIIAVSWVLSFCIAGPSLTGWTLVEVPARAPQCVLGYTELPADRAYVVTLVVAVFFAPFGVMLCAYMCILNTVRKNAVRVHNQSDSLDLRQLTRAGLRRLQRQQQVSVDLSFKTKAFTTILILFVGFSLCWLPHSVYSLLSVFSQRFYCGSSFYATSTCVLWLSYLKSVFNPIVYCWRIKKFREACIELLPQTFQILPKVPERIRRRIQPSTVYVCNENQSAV
Sequence of Probable G-protein coupled receptor 149 (Homo sapiens) (Q86SP6 whole entry): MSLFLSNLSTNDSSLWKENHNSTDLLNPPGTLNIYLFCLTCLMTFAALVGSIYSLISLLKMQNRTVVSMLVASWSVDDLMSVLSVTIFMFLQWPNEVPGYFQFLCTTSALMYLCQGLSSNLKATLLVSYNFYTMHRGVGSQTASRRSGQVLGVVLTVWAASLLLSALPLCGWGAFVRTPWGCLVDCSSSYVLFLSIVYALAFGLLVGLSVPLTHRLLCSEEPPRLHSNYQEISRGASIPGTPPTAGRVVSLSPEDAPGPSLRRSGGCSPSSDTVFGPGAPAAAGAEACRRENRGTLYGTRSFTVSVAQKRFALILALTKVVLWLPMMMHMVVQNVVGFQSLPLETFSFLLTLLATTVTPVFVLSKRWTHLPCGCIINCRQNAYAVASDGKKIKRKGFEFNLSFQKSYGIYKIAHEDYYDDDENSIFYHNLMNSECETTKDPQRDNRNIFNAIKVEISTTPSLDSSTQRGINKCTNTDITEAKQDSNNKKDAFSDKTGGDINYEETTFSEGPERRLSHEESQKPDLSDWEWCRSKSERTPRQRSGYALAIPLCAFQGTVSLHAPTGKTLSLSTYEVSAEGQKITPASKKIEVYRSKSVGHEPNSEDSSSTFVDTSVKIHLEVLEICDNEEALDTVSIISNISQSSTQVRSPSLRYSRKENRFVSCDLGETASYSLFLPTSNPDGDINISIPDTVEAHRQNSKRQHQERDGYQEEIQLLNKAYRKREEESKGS
Sequence of Alpha-2C adrenergic receptor (Homo sapiens) (P18825 whole entry): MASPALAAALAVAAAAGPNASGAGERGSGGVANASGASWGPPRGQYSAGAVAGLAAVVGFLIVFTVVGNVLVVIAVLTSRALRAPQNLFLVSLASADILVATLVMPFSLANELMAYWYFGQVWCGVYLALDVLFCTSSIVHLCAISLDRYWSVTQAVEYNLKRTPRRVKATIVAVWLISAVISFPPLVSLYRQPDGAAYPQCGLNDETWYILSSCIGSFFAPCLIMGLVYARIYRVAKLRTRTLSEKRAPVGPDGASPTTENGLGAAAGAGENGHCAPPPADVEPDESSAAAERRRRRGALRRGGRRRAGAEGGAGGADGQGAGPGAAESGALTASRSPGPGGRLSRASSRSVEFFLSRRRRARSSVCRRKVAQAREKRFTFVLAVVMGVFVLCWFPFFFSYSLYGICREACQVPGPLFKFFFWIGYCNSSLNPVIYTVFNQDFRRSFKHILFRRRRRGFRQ
Sequence of Probable G-protein coupled receptor 101 (Homo sapiens) (Q96P66 whole entry): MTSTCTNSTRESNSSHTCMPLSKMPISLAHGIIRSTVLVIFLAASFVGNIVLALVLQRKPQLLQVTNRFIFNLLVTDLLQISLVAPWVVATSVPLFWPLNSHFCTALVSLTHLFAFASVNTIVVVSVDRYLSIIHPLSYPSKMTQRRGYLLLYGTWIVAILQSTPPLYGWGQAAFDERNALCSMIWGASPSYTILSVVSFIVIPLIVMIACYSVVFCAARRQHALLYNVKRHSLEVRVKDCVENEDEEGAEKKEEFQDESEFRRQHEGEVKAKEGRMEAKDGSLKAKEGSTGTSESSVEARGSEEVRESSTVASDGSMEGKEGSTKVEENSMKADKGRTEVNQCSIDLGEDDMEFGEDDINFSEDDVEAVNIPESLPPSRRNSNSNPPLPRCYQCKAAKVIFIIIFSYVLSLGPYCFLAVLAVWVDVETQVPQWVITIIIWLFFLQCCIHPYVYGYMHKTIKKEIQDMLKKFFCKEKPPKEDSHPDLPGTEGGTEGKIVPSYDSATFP
Sequence of Alpha-2A adrenergic receptor (Homo sapiens) (P08913 whole entry): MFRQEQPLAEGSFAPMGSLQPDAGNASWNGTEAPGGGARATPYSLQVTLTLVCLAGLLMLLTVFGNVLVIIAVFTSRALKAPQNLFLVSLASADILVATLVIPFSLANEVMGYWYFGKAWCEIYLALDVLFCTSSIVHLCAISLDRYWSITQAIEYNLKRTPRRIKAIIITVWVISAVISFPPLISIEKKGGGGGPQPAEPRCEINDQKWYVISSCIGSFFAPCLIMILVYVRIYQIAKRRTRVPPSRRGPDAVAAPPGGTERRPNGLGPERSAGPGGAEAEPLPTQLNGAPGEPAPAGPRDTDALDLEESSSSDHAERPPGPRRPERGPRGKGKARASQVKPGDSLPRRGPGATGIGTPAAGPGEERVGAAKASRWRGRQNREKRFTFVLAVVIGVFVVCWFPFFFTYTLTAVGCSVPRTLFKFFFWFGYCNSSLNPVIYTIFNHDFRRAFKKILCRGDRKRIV
Sequence of Metabotropic glutamate receptor 8 (Homo sapiens) (O00222 whole entry): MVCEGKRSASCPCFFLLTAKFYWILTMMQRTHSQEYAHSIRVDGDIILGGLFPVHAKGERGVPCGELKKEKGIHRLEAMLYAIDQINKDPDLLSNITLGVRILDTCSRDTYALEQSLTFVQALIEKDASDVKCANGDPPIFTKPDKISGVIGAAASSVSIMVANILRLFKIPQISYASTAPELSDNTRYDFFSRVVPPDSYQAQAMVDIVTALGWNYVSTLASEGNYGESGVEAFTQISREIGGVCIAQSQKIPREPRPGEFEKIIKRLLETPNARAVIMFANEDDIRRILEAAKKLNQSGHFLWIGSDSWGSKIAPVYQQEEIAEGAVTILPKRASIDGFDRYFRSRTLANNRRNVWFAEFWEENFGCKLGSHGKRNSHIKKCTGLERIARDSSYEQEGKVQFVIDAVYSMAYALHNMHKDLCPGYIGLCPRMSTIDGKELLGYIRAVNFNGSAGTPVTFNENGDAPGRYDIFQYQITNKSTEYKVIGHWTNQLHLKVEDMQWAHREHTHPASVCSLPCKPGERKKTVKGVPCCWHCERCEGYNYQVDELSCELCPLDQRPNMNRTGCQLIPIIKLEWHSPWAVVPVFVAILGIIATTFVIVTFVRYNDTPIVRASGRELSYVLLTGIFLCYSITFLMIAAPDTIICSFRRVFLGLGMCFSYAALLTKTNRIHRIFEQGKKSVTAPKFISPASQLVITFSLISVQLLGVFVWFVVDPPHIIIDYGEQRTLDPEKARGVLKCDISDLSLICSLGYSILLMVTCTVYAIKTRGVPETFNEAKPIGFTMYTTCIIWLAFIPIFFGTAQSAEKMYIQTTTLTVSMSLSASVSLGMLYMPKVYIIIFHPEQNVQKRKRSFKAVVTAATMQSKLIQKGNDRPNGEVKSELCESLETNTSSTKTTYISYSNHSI
Sequence of G-protein coupled receptor 84 (Homo sapiens) (Q9NQS5 whole entry): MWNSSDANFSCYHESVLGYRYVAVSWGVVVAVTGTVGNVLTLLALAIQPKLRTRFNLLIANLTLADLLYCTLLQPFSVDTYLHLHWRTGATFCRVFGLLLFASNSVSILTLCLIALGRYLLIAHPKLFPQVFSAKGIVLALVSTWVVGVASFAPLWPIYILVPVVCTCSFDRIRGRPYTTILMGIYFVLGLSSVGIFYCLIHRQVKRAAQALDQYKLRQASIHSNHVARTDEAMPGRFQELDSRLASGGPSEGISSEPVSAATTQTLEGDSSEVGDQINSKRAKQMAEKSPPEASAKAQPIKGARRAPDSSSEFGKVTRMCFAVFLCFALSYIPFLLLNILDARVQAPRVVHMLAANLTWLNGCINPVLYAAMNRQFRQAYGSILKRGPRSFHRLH
Sequence of Leukotriene B4 receptor 1 (Q15722 whole entry): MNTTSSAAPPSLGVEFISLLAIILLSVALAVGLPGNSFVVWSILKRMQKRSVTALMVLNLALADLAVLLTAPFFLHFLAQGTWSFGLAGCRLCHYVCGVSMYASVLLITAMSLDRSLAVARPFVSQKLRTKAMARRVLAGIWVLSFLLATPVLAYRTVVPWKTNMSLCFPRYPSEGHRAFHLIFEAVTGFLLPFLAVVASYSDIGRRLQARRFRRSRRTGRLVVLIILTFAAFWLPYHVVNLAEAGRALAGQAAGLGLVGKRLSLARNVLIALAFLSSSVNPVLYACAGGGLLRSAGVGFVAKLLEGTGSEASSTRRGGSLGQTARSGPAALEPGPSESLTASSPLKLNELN
Sequence of Melanin-concentrating hormone receptor 2 (Homo sapiens) (Q969V1 whole entry): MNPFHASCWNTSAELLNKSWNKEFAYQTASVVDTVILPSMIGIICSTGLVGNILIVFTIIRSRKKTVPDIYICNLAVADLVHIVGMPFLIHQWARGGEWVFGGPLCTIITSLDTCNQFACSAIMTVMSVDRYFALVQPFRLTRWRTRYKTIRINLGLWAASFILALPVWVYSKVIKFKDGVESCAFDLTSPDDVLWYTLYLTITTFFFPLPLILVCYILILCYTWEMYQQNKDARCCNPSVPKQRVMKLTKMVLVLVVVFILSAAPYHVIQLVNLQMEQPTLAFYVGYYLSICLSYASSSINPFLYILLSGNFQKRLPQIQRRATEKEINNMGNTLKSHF

- RLU [1]: -4060
- RLU [2]: 12900
- RLU [3]: 1260
- RLU [4]: -3990
- RLU [5]: 463
- RLU [6]: -270
- RLU [7]: 120
- RLU [8]: 8750
- RLU [9]: 963
- RLU [10]: -80
- RLU [11]: 10100
- RLU [12]: -900
- RLU [13]: -2170
- RLU [14]: 1050
- RLU [15]: 12100
- RLU [16]: -36.4
- RLU (Opsin-5 (Homo sapiens)): 4000
- RLU [17]: 280
- RLU [18]: -2140
- RLU [19]: -311
- RLU [20]: 8350
- RLU [21]: 1.74
- RLU [22]: 6260
- RLU [23]: 1350
- RLU [24]: 2720
- RLU [25]: -3190
- RLU [26]: -82.8
- RLU [27]: -1390
- RLU [28]: -637
- RLU [29]: -970
- RLU [31]: -394
- RLU [32]: 1530
- RLU [33]: -916
- RLU [34]: 13500
SMILES: CCCCC(=O)N1CC2(C1)CN(c1ccccc1-c1nnn[nH]1)C2
- RLU [30]: 351
